Consider 1 molecule from patent US8236769B2, “Agent for improving insulin resistance” (Morinaga Milk Industry Co., Ltd., priority 2005, dated 2012).

The subject of test [1] is ZDF (Zucker Diabetic Fatty) rats. The test is described as follows: Insulin tolerance test in ZDF rats. Format: in vivo, rat. The settings on record: 35th day; 37.5 μg/kg orally once a day; human insulin 10 U/Kg i.p. after 4 hours fasting; 15 to 60 minutes after insulin; FIG. 1. As to the method:
In Example 3, the same Test Sample and the negative sample as those prepared in Examples 1 and 2 were used.
The semice were divided into groups, each consisting of 6 rats. […] In the present example, the insulin tolerance test was performed in such a manner that: the rats were fasted for 4 hours, and were then intraperitoneally administered with 10 U/Kg of body weight of a human insulin (Eli Lily and Company); and changes with time in blood glucose level were measured from the initiation of the administration of the insulin to after 60 minutes later.

The test system of another test is MCP-1. In words: Production quantity of MCP-1 of epididymal adipose tissue from treated ZDF rats (culture supernatant, ELISA). Format: in vivo, rat. The settings on record: 45th day. As for the experimental part: (§1) In Example 2, the same Test Sample and the negative sample as those prepared in Example 1 were used.
(§2) After 1 hour of the culture, culture supernatants were collected, and concentrations of TNF-α and MCP-1 in the culture supernatants were measured by ELISA method (Biosource).

For a further test, the system named is TNF-α. The test is described as follows: Production quantity of TNF-α of epididymal adipose tissue from treated ZDF rats (culture supernatant, ELISA). The test is classed as in vivo, rat. The settings on record: 45th day. As to the method:
as §1, §2

Test [2] has as its system ZDF (Zucker Diabetic Fatty) rats. The conditions noted are these: serum.
Protocol: 3-O-β-D-glucopyranosyl-4-methylergost-7-en-3-ol produced in Preparation Example 1 was dissolved in DMSO, and the concentration was adjusted to 15 μg/ml with distilled water to thereby prepare Test Sample. In this case, the final DMSO concentration was adjusted to 0.2%. Furthermore, a solution without the test samples was prepared as a negative sample.
6-week-old male ZDF rats (purchased from Charles River Laboratories, Inc., USA) were preliminarily fed with a high-fat diet (Research Diet, Inc.) for 1 month. These rats were divided into groups, each consisting of 6 rats. Each of the groups of rats was orally administered with 1 ml per 400 g of body weight (37.5 μg/kg of body weight) of the Test Sample or the negative sample once a day everyday with a sonde. On the 45th day from the initiation of the administration of the samples, blood was collected from the rats under fasting, and the level of the free fatty acid in serum were measured by using NEFA C-test Wako (Wako Pure Chemical Industries, Ltd.).
The conditions of test [3]: WO 2006/035525; cited from earlier work.
The mark [4] stands for this setting: adipose tissue, Tukey-Kramer's test.
The mark [5] stands for this setting: culture supernatant of epididymal fat tissue after 1 hour at 37° C., 37.5 μg/kg orally once a day.

As for `CC1C(O[C@@H]2O[C@H](CO)[C@@H](O)[C@H](O)[C@H]2O)CC[C@@]2(C)C1CC=C1[C@@H]3CC[C@H]([C@H](C)CC[C@H](C)C(C)C)[C@@]3(C)CC[C@@H]12` (stereo partly drawn) [Test Sample, 3-O-β-D-glucopyranosyl-4-methylergost-7-en-3-ol], the “blood glucose level in insulin tolerance test compared with negative sample group” value in test [1] is reported as “lower blood glucose levels”. The “inhibitory effect on the production of MCP-1 compared with negative sample group” value in the test on MCP-1 (setting [4]) is “significant inhibitory effects”. The same molecule showed an MCP-1 in the test with MCP-1 (setting [5]) of 23.3 ± 3.6 pg/mL. The “inhibitory effect on the production of TNF-α compared with negative sample group” value in the test with TNF-α (setting [4]) was “significant inhibitory effects”. In the test with TNF-α (setting [5]), this molecule showed a TNF-α of 117.4 ± 47.9 pg/mL. In addition, in test [2] (45th day, 37.5 μg/kg orally once a day, decreased to this % of negative sample group), the “free fatty acid levels compared with the group administered with the negative sample” value was determined as 53%. In test [2] (fasting, 45th day of administration, 37.5 μg/kg of body weight orally once a day, male ZDF rats on high-fat diet), this molecule gave a Free fatty acid of 1.948 ± 0.648 mEq/l. Moreover, in test [3], the “effect on hemoglobin Alc level” value was “decreasing hemoglobin Alc level” and the effect on hyperglycemia entry was “improving hyperglycemia”.
